Like-named read-outs stand apart in the source and are kept apart here.
Assays:
[1] = Toxicity in 2.2.15 cells by neutral red dye uptake; assay type: cell-based; settings: human, 2.2.15 cells (HepG2 cells transformed with hepatitis virion), 2.2.15 cells, read-out: Cytotoxicity IC50 ± SD
Description: Toxicity analyses were performed to assess whether any observed antiviral effects were due to a general effect on cell viability. The method used herein was the measurement of the uptake of neutral red dye, a standard and widely used assay for cell viability in a variety of virus-host systems, including HSV and HIV. Toxicity analyses were performed in 96-well flat bottomed tissue culture plates. Cells for the toxicity analyses were cultured and treated with test compounds with the same schedule as described for the antiviral evaluations below. Each compound was tested at 4 concentrations, each in triplicate cultures (wells “A”, “B”, and “C”). Uptake of neutral red dye was used to determine the relative level of toxicity. The absorbance of internalized dye at 510 nm (Asin) was used for the quantitative analysis. Values are presented as a percentage of the average Asin values in 9 separate cultures of untreated cells maintained on the same 96-well plate as the test compounds. Dye uptake in the 9 control cultures on plate 5 ranged from 91.6% to 110.4%, and on plate 6 from 96.6% to 109%.

[2] = tested on: hepatitis B virus in transfected HepG-2 (2.2.15) cells; experiment: Anti-HBV activity in 2.2.15 cell cultures (HBV virion DNA and replicative intermediates); assay type: cell-based; settings: for EC50 / EC90: Hepatitis B virus, HepG2 2.2.15, 216 h, day 9
Description: The ability of the active compounds to inhibit the growth of virus in 2.2.15 cell cultures (HepG2 cells transformed with hepatitis virion) can be evaluated as described in detail below.
A summary and description of the assay for antiviral effects in this culture system and the analysis of HBV DNA has been described (Korba and Milman, 1991, Antiviral Res., 15:217). The antiviral evaluations were performed on two separate passages of cells. All wells, in all plates, were seeded at the same density and at the same time.
Due to the inherent variations in the levels of both intracellular and extracellular HBV DNA, only depressions greater than 3.5-fold (for HBV virion DNA) or 3.0-fold (for HBV DNA replication intermediates) from the average levels for these HBV DNA forms in untreated cells are considered to be statistically significant [P<0.05]. The levels of integrated HBV DNA in each cellular DNA preparation (which remain constant on a per cell basis in these experiments) were used to calculate the levels of intracellular HBV DNA forms, thereby ensuring that equal amounts of cellular DNA were compared between separate samples.
Typical values for extracellular HBV virion DNA in untreated cells ranged from 50 to 150 pg/ml culture medium (average of approximately 76 pg/ml). Intracellular HBV DNA replication intermediates in untreated cells ranged from 50 to 100 pg/μg cell DNA (average approximately 74 pg/μg cell DNA). In general, depressions in the levels of intracellular HBV DNA due to treatment with antiviral compounds are less pronounced, and occur more slowly, than depressions in the levels of HBV virion DNA (Korba and Milman, 1991, Antiviral Res., 15:217).

SMILES: Nc1ccn([C@H]2CC[C@@H](CO)O2)c(=O)n1 [β-D-DDC, 2′,3′-dideoxycytidine, reference compound]
- IC50 ([1]; Table 2): 236 ± 21 µM
- IC50 ([1]; Table 4): 259 ± 18 µM
- EC50 ([2]; read-out: HBV RI EC50 ± SD, Table 2, replicative intermediates (intracellular DNA), untreated control 87 pg/μg cell DNA): 3.4 ± 0.4 µM
- EC50 ([2]; read-out: HBV RI EC50 ± SD, Table 4, replicative intermediates (intracellular DNA), untreated control 79 pg/μg cell DNA): 2.4 ± 0.3 µM
- EC90 ([2]; read-out: HBV RI EC90 ± SD, Table 2, replicative intermediates (intracellular DNA), untreated control 87 pg/μg cell DNA): 13 ± 1.4 µM
- EC90 ([2]; read-out: HBV RI EC90 ± SD, Table 4, replicative intermediates (intracellular DNA), untreated control 79 pg/μg cell DNA): 12 ± 1.1 µM
- EC50 ([2]; read-out: HBV virion EC50 ± SD, Table 2, extracellular DNA, untreated control 102 pg/ml): 1.4 ± 0.2 µM
- EC50 ([2]; read-out: HBV virion EC50 ± SD, Table 4, extracellular DNA, untreated control 88 pg/ml): 1.5 ± 0.2 µM
- EC90 ([2]; read-out: HBV virion EC90 ± SD, Table 2, extracellular DNA, untreated control 102 pg/ml): 9.6 ± 1.1 µM
- EC90 ([2]; read-out: HBV virion EC90 ± SD, Table 4, extracellular DNA, untreated control 88 pg/ml): 8.2 ± 0.8 µM
- Selectivity Index IC50/EC90 RI ([2]; Table 2): 18
- Selectivity Index IC50/EC90 Virion ([2]; Table 2): 26
- Selectivity Index IC50/EC90 RI ([2]; Table 4): 22
- Selectivity Index IC50/EC90 Virion ([2]; Table 4): 37
